The text below walks through data of US7528144B2, “Molecules and methods for fluorescence microscopy” (WiSys Technology Foundation, Inc., priority 2005, dated 2009).

The subject of one data set is lysosomes. Briefly: Colocalization with Lysotracker Red by fluorescence microscopy. Type of data set: cell-based. As to conditions: live THP-1 cells. The procedure: (§1) A. LTI studies: Aliquots of THP-1 cells (Cell densities were 1×10^6 cells per mL) were exposed to either 100 nM InstantLyso LLT-1 in RPMI 1640 medium with 10% FCS at 37° C., 5% CO2, both InstantLyso LLT-1 and 100 nM Lysotracker Red (Molecular Probes, Eugene Oreg.), or both InstantLyso LLT-1 and at a concentration of 75 nM. Mitotracker Red (Molecular Probes). In each case, medium is first pipetted off cells, then warmed medium containing dyes is added. The cell suspension is incubated for 30 minutes at 37° C. and examined by microscopy.
Colocalization of InstantLyso LLT-1 with Lysotracker red were performed under the following conditions: Live THP-1 Leukemic monocytes were grown in RPMI 1640 medium at 37C. and 5% CO2 for 5 days. 2 mL of cells were allowed to adhere to a Biocoat (polylysine coated) glass bottomed cell culture plate for 30 minutes at 37C. The old medium was removed and 2 mLs of 37 C fresh media containing 1 00 nM InstantLyso LLT-1 (from 10 μM DMSO stock) and 100 nM Lysotracker Red (from 1 mM DMSO stock) was added. Cells were incubated at 37C for 30 minutes. And visualized with an inverted epifluorescence microscope at 600× using a blue/purple (450/50 ex and 510/50 em with D480 mirror) cube for InstantLyso LLT-1 and a green (560/50 ex and 646/40 em with D595 mirror). Exposure was automatic. Temperature was ambient. […]

The subject of the next data set is mitochondria. Briefly: Colocalization with Mitotracker Red by fluorescence microscopy. The data set is classed as cell-based. The procedure:
as §1
(§2) B. InstantLipo Sep-1 studies: Aliquots of either THP-1 cells or adherent human fibroblasts were exposed to either 200 nM InstantLipo Sep-1in RPMI 1640 medium with 10% FCS at 37 C, 5% CO2, both InstantLipo Sep-1and Vybrant lipid raft kit (Molecular Probes, used according to the manufacturer's instructions), both InstantLipo Sep-1and Mitotracker Red (Molecular Probes, used according to the manufacturer's instructions), or both InstantLipo Sep-1and Lysotracker Red. Cells were incubated at 37° C. for at least 20 minutes. […] Some of the punctate structures moved rapidly when observed by confocal microscopy in living cells. Conditions for colocalization are as follows: Live THP-1 Leukemic monocytes were grown in RPMI 1640 medium at 37 C and 5% CO2 for 5 days. […]

The subject of data set [1] is THP-1 cells. The experiment in a line: Staining pattern in live THP-1 cells. Type of data set: cell-based. Conditions: THP-1 monocytic cells, 100 nM dye, 30 minutes. The procedure:
as §1, §2

For another data set, the system named is cholesterol-rich domains. The experiment in a line: Staining of fibroblasts treated with cholesterol transport inhibitor U18666A. Type of data set: cell-based, human. Conditions: foreskin fibroblasts, 3 μg/mL U18666A overnight, 150 nM dye, 30 minutes. The procedure:
Similarly, 3 μg/mL from H20 stock of aminoesterol U18666A (Calbiochem)) is often used with fibroblasts to inhibit intracellular cholesterol transport and leads to accumulation of cholesterol in nuclear regions (C. F. Roff, E. Goldin, M. E. Comly, A. Cooney, A. Brown, M. T. Vanier, S. P. Miller, R. O. Brady and P. G. Pentchev, Dev Neurosci 13 (1991) 315-9). Foreskin fibroblasts were grown on coverslips for 1 day in EMEM. Medium was removed and replaced with 2 mL fresh EMEM to ensure consistent treatment as cells that were treated with U18666A. Cells were incubated at 37° C. and 5% CO2 overnight. Medium was removed and replaced with 2 mL EMEM containing 200 nM InstantLipo Sep-1. Cells were then incubated at 37° C. and 5% CO2 for 30 minutes to allow dye to load. Cells were imaged using an epifluorescence microscope at 1000× magnification while excited with a purple cube.
Foreskin fibroblasts were grown on coverslips for 3 days in EMEM. Medium was removed and replaced with 2 mL EMEM containing 3μg/mL U18666A. Cells were incubated at 37° C. and 5% CO2 overnight. Medium was removed and replaced with 2 mL EMEM containing 150 nM InstantGolgi McN-1. Cells were then incubated at 37° C. and 5% CO2 for 30 minutes to allow dye to load. […] This is consistent with the staining of more numerous and pathological cholesterol-rich domains and vesicles. […]

The test system of data set [2] is THP-1 cells. Conditions: FIG. 24, concentration not given.

Structures are written as SMILES.

For `CCCCCCN1C(=O)c2cccc3c(NCCN)ccc(c23)C1=O` [InstantLyso LLT-1, 6-(2-aminoethyl)amino-2-hexyl-1H-benz[de]isoquinoline-1,3-(2H)-dione], the “co-localization with Lysotracker Red” value with lysosomes (100 nM dye + 100 nM Lysotracker Red, 30 minutes) is “positive co-localization”. Besides, the “co-localization with Mitotracker Red” value in the data set with mitochondria (THP-1 cells, 100 nM dye + 75 nM Mitotracker Red, 30 minutes) is reported as “failed to exhibit such co-localization”. In the data set with THP-1 cells [1], the staining pattern entry is listed as “staining in punctate structures”.

As for `CCCCCCN1C(=O)c2cccc3c(NCCNS(=O)(=O)c4ccc(C)cc4)ccc(c23)C1=O` [InstantGolgi McN-1, N-hexyl-4-[2-(4-toluensulfonyl)aminoethyl]amino-1,8-naphthalimide], in the data set with lysosomes (150 nM dye + 75 nM Lysotracker Red), the “colocalization with lysosomes (Lysotracker Red)” value is “limited colocalization with lysosomes and mitochondria”. For the same compound, in the data set with mitochondria (live THP-1 cells, 150 nM dye + 50 nM MitoTracker Red), the “colocalization with mitochondria (MitoTracker Red)” value was “limited colocalization with lysosomes and mitochondria”. In addition, the “staining change after U18666A” value in the data set with cholesterol-rich domains is “more punctate bright spots in cells after inhibition”. Moreover, the “cytotoxicity / viability (Trypan blue)” value with THP-1 cells [2] is “no significant cytotoxicity”.
